Data as given in paper PMC4102931 (Investigational new drugs, 2010).
Where two headings read alike, the source gives them in different places. Marks after values point to notes of the source that are not given here. One block for each compound: values may come before it.

What was measured:
[1] = human, in vivo
[2] = clinical; details: human, in vivo
[3] = Chemotherapy pharmacokinetics alone; details: for Change in the geometric mean chemotherapy pharmacokinetic parameters when given alone or in combination with cediranib: limited pharmacokinetic data; for AUC / Cmax: alone (cycle 1, day 1), geometric mean (CV%)
[4] = system: patients with advanced CRC; details: previous phase I study; cited from earlier work
[5] = system: advanced solid tumors; assay: Tumor response evaluation; format: in vivo, human
[6] = system: patients with advanced solid tumors; assay: Safety and tolerability: adverse events graded by NCI CTC version 3.0; format: in vivo, human
[7] = ref Trial 2171IL0001, cited from earlier work; for Tmax: median (range)
[8] = Steady-state pharmacokinetics of cediranib given with chemotherapy; format: in vivo, human; details: for Css,max / AUC: geometric mean (CV%); for AUC / Tmax: human, plasma, oral; for AUC: AUCss; for Tmax: median (range)
[9] = system: patients with a broad range of advanced solid tumors; details: cited from earlier work
[10] = system: patients with advanced solid tumors; assay: Dose-limiting toxicities and maximum tolerated dose; format: in vivo, human; details: for MTD of cediranib: once-daily oral
[11] = all arms, cediranib with chemotherapy
[12] = 20 mg, Arm 1 (with mFOLFOX6), cediranib 20 mg, n=5
[13] = 20 mg, Arm 3A (with irinotecan), cediranib 20 mg, n=5
[14] = 20 mg, Arm 3B (with irinotecan and cetuximab), cediranib 20 mg, n=3
[15] = 30 mg, Arm 2 (with docetaxel), cediranib 30 mg, n=8

Structure (SMILES): O=c1[nH]cc(F)c(=O)[nH]1 [5-FU]
Cmax [1]: 544 (72.9) ng/mL

Structure (SMILES): CC(=O)O[C@@]12CO[C@@H]1C[C@H](O)[C@@]1(C)C(=O)[C@H](O)C3=C(C)[C@@H](OC(=O)[C@H](O)[C@@H](NC(=O)OC(C)(C)C)c4ccccc4)C[C@@](O)([C@@H](OC(=O)c4ccccc4)[C@H]21)C3(C)C [Docetaxel]
AUC ([2]; AUC): 3770 ng·h/mL

Structure (SMILES): O=C1[O][Pt]2([NH][C@@H]3CCCC[C@H]3[NH]2)[O]C1=O [Oxaliplatin, reference compound]
Change in the geometric mean chemotherapy pharmacokinetic parameters when given alone or in combination with cediranib [3]: < 2 fold

Structure (SMILES): CCc1c2c(nc3ccc(O)cc13)-c1cc3c(c(=O)n1C2)COC(=O)[C@]3(O)CC [SN38]
AUC ([3]; Arm 3A): 595 (53.5) ng/mL•h
Cmax ([3]; Arm 3A): 35.4 (50.1) ng/mL
AUC ([3]; Arm 3B (with cetuximab)): 482 (22.3) ng/mL•h
Cmax ([3]; Arm 3B (with cetuximab)): 29.1 (21.0) ng/mL
Change in the geometric mean chemotherapy pharmacokinetic parameters when given alone or in combination with cediranib [3]: < 2 fold

Structure (SMILES): COc1cc2c(Oc3ccc4[nH]c(C)cc4c3F)ncnc2cc1OCCCN1CCCC1 [cediranib, Cediranib]
Recommended phase II dose in combination with mFOLFOX6 [4]: 30 mg/day
Partial tumor responses, all arms ([5]; 46 patients with efficacy data, 35 evaluable by RECIST): four
Median duration of treatment of the four patients with partial response ([5]; range 154-384): 319 days
Serious adverse events of hypertension ([6]; across all arms): Three
CTC grade 1 hypertension ([6]; across all arms, n=59): 21 patients
CTC grade 3 hypertension ([6]; across all arms, n=59): three
CTC grade 3 leukopenia ([6]; across all arms, n=59): nine
CTC grade 3 neutropenia ([6]; across all arms, n=59): 11 patients
CTC grade 3 or 4 diarrhea of any causality ([6]; across all arms, n=59): 12 patients
CTC grade 3 or 4 fatigue of any causality ([6]; across all arms, n=59): 16 patients
CTC grade 3 or 4 leukopenia of any causality ([6]; across all arms, n=59): 13 patients
CTC grade 3 or 4 neutropenia of any causality ([6]; across all arms, n=59): 19 patients
CTC grade 4 leukopenia ([6]; across all arms, n=59): four
CTC grade 4 neutropenia ([6]; across all arms, n=59): 8 patients
Serious adverse event: fatigue ([6]; across all arms, number (%)): 16 (27%) patients
Serious adverse event: leukopenia ([6]; across all arms, number (%)): 12 (20%) patients
Serious adverse event: neutropenia ([6]; across all arms, number (%)): 18 (30%) patients
Patients discontinued due to diarrhea ([6]; across the study): three
Patients discontinued due to fatigue ([6]; across the study): two
Abdominal pain, any grade (%), Total (n=59) [6, 11]: 16 (27%)
Alopecia, any grade (%), Total (n=59) [6, 11]: 15 (25%)
Anorexia, any grade (%), Total (n=59) [6, 11]: 25 (42%)
Decreased weight, any grade (%), Total (n=59) [6, 11]: 21 (36%)
Dehydration, any grade (%), Total (n=59) [6, 11]: 19 (32%)
Dyspnea, any grade (%), Total (n=59) [6, 11]: 18 (31%)
Headache, any grade (%), Total (n=59) [6, 11]: 16 (27%)
Leukopenia, any grade (%), Total (n=59) [6, 11]: 20 (34%)
Nausea, any grade (%), Total (n=59) [6, 11]: 36 (61%)
Neutropenia, any grade (%), Total (n=59) [6, 11]: 27 (46%)
Vomiting, any grade (%), Total (n=59) [6, 11]: 30 (51%)
Adverse events of proteinuria (all CTC grade 1 or 2) ([6]; all study arms except arm 4): Seven
Increases in blood TSH above the normal range (> 5 mU/L) ([6]; overall): 26 patients
Neutrophil counts of less than 1×10^9/L ([6]; overall, n=59): Fourteen
Patients discontinuing due to adverse events ([6]; total, number (%)): 12 (20%) patients
Css,max ([7]; single-agent cediranib 20 mg, multiple once-daily oral doses, n=11, geometric mean (CV%)): 66.6 (52.9) ng/mL
AUCss ([7]; single-agent cediranib 20 mg, n=11, geometric mean (CV%)): 774 (51.6) ng/mL•h
Tmax ([7]; single-agent cediranib 20 mg, n=11): 3.0 (2.0, 6.4) h
AUCss ([7]; single-agent cediranib 30 mg, n=12, geometric mean (CV%)): 741 (48.7) ng/mL•h
Tmax ([7]; single-agent cediranib 30 mg, n=12): 2.1 (1.0, 4.0) h
Css,max ([8]; Arm 1 (with mFOLFOX6), cediranib 20 mg, n=5): 65.3 (86.2) ng/mL
Css,max ([8]; Arm 2 (with docetaxel), cediranib 30 mg, n=8): 62.5 (53.3) ng/mL
Css,max ([8]; Arm 3A (with irinotecan), cediranib 20 mg, n=5): 76.0 (57.6) ng/mL
Css,max ([8]; Arm 3B (with irinotecan and cetuximab), cediranib 20 mg, n=3): 50.9 (126) ng/mL
Css,max ([8]; Arm 4 (with pemetrexed), cediranib 30 mg, n=4): 74.9 (31.6) ng/mL
AUC [8, 12]: 986 ng·h/mL
AUC [8, 13]: 1010 ng·h/mL
AUC [8, 14]: 668 ng·h/mL
Tmax [8, 12]: 4 h
Tmax [8, 13]: 2.1 h
Tmax [8, 14]: 4 h
AUC [8, 15]: 1100 ng·h/mL
Tmax [8, 15]: 5 h
Doses at which cediranib monotherapy was generally well tolerated [9]: ≤ 45 mg/day
MTD of cediranib ([10]; in combination with docetaxel (arm 2)): 30 mg
MTD of cediranib according to the protocol definition ([10]; in combination with irinotecan and cetuximab): 20 mg
MTD of cediranib ([10]; in combination with irinotecan): 20 mg
MTD of cediranib ([10]; in combination with mFOLFOX6): 20 mg
MTD of cediranib ([10]; in combination with pemetrexed (arm 4)): 30 mg

The next lines start with the values.

Cmax [1]: 3040 (18.3) ng/mL
Cmax ([2]; Cmax): 3290 ng/mL
Structure (SMILES): CCc1c2c(nc3ccc(OC(=O)N4CCC(N5CCCCC5)CC4)cc13)-c1cc3c(c(=O)n1C2)COC(=O)[C@]3(O)CC [Irinotecan]

AUC [1]: 295 (37.7)^e u.g.h/mL
Cmax [1]: 180 (14.2)^e u.g/mL
Structure (SMILES): Nc1nc2[nH]cc(CCc3ccc(C(=O)N[C@@H](CCC(=O)O)C(=O)O)cc3)c2c(=O)[nH]1 [Pemetrexed]
